This note sets out measurements from patent publication US20240350491A1, “METHODS AND COMPOSITIONS FOR IMMUNE CONTROL THROUGH DICKKOPF-1” (Baylor College of Medicine, priority 2021, published 2024).

The subject of assay [1] is C57BL/6 mice. The assay is described as follows: Steroid-resistant AAD models (A. niger ± LPS), fluticasone propionate. Format: in vivo. Conditions: A. niger conidia ±30 ng LPS; daily treatment. On the procedure: As shown in the severe eosinophilic and neutrophilic steroid-resistant AAD models of FIGS. 14A-14B, mice challenged with Aspergillus niger (AN) develop an asthma phenotype, here showing airway hyperresponsiveness (AHR), that is steroid (fluticasone propionate; FP, a commonly used steroid in asthma) resistant. Illustrated in FIG. 14A is an experimental timeline for assessing the effect of daily FP or vehicle (liposome: dilauroylphosphatidylcholine: DLPC) treatment on AHR. AHR was measured as a function of respiratory system resistance (RRS(cmH2O·s·ml^−1)) in C57BL/6 mice challenged intranasally (q.o.d.) with 4×10^5 A. niger (AN) conidia ±30 ng lipopolysaccharide (LPS) (FIG. 14B).

Assay [2] deals with Human platelets. The assay is described as follows: Dkk-1 release from human platelets stimulated overnight at 4° C. or 37° C. It counts as cell-based. Conditions: overnight at both 4° C. and 37° C.; versus unstimulated platelets. On the procedure:
To investigate agents driving Dkk-1 release by platelets, human platelets were stimulated with lipopolysaccharide (LPS), thrombin, prothrombin (ProThrom), proteinase of Aspergillus melleus (PAM), or candidalysin (C. Lysin) overnight at 4° C. (FIG. 13A) or 37° C. (FIG. 13B). Unstimulated human platelets served as a control (platelets). Following stimulation, Dkk-1 concentration in the supernatant was quantified.

Assay [3] concerns the target T1, Dkk-1 (Mus musculus, UniProt O54908).
T1 construct: endogenous in cells; host or cells: C57BL/6 mice (whole animal; Dkk-1 released from platelets into plasma)
T1 sequence (O54908 32-272): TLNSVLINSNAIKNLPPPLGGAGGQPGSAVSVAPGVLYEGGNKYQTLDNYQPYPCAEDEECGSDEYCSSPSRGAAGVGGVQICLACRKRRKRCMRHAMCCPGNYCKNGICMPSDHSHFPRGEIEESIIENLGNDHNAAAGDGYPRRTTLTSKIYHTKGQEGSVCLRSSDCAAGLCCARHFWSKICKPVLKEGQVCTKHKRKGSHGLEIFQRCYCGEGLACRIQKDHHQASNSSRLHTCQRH
The assay is described as follows: Fungal experimental asthma due to Aspergillus niger, Dkk-1 antagonist IN or IP. It counts as in vivo, C57BL/6 mice. On the procedure: C57BL/6 mice (4-6 weeks old) were challenged every second day with 400,000 viable conidia of AN while at the same time receiving a Dkk-1 antagonist (WAY262611) intranasally (IN) or intraperitoneally (IP) for 14 days. Airway hyperresponsiveness as assessed by enhanced increases in respiratory system resistance in response to increasing doses of acetylcholine chloride injected intravenously were determined as compared to PBS control mice (blue line). […] Thus, regardless of the fungus used, either Candida albicans or A. niger as shown herein, Dkk-1 can induce AHR. Statistics: IP versus IN or AN lines: P<0.05.

Assay [4] has as its target T1, Dkk-1. The assay is described as follows: C. albicans-induced allergic airway disease in mice given Dkk-1 inhibitor intraperitoneally. It counts as in vivo, C57BL/6 mice. On the procedure:
The relevance of Dkk-1 to allergic airway disease induced by airway mycosis is unknown. Mice challenged with C. albicans were administered a Dkk-1 inhibitor (WAY 262611) previously shown to block this peptide in vivo (Chae et al., 2016b) (FIG. 2G).
(§1) C57BL/6 mice were administered 1×10^5 viable cells of C. albicans intranasally every other day for 8 challenges as shown in FIG. 1 (Porter et al., 2011a). Alternatively, C57BL/6 mice were given 4, 8, and 16 μmol candidalysin or 16 μmol of scrambled peptide control in PBS every other day for 8 challenges as shown in FIG. 8. Dkk-1 inhibitor (Chae et al., 2016a) (WAY262611, cat: 317700, Millipore Sigma, Burlington, MA. Dose: 10 or 20 μg/kg) and recombinant mouse Dkk-1 (5897-DK-010, R&D systems, Minneapolis, MN. Dose: 5 μg/kg) were given intraperitoneally at the same time and fungal challenge. Mice were analyzed 24 h after the final challenge for allergic airway disease endpoints.
(§2) Bronchial constriction in response to increasing dose of acetylcholine (Ach) injected intravenously, bronchoalveolar lavage fluid (BALF) cell differential counting, Dkk-1 quantitation from plasma, ELISA analysis of whole lung, flow cytometry analysis of Th cells and lung histopathology were assessed in response to C. albicans challenge as previously described (Porter et al., 2011a). Briefly, mice were anesthetized with etomidate and intravenously injected with acetylcholine via tail vein to assess AHR as quantified by measuring respiratory system resistance (RRS). Total BALF cells were collected by lavaging whole lung, total cells were enumerated and differential cell counting was performed on modified Giemsa-stained cytospin preparations. Plasma was harvested by retro-orbital bleeding and anti-coagulated by 10% 0.5M EDTA (Thermofisher scientific, Waltham MA). Lungs were harvested and processed as follows. Lungs were cut into small pieces and incubated in digestion buffer (2 mg/ml collagenase (#LS004177, Worthington), 0.04 mg/ml DNAse (#10104159001, Sigma) 1, 20% FBS in HBSS) for 1 h at 37° C. after which they were deaggregated by pressing through a […] nylon mesh and centrifuged at 400×g for 5 minutes at 4° C. Supernatants were discarded, and 1.5 mL of ACK (Thermofisher scientific, Waltham MA) was added and incubated for 3 min at room temperature for erythrocyte lysis. ACK was then neutralized with 7.5 mL of complete RPMI-1640 (Corning, NY), with 10% FBS and 1% Pen Strep, Gibco, Waltham MA). The resulting leukocyte preparations were centrifuged and prepared for flow cytometry analysis or ELISA.
Cell culture supernatants were analyzed for cytokines by standard ELISA after comparison to recombinant standard. IL-4 (Clone 11B11 and 554390 BD Biosciences, San Jose, CA), IL-5, IL-13 (DY405, DY413, R&D systems, Minneapolis, MN), IL-17 (BMS2017, Thermofisher scientific, Waltham MA), IFN-7 (555142, BD Biosciences, San Jose, CA), IL-1, IL-6, TNF (ab210895, ab213749 and ab212073, Abcam, Cambridge MA) were used as antibodies pairs and capture signals were amplified using Streptavidin-horseradish peroxidase conjugate (51-9002813, BD Biosciences, San Jose, CA). The plate was further developed using TMB substrate solution (N301, Thermofisher scientific, Waltham MA) and detected at the absorbance wavelength of 450 nm.
Total lung cells isolated above were stained with Live/Dead Fix Blue (L34961, Thermofisher scientific, Waltham MA), CD45, CD3, CD4 (103122, 100222, 100412, Biolegend, San Diego, CA). Cells were separated into 3 groups, then permeabilized and fixed using Transcription Factor Buffer Set (562574, BD Biosciences, San Jose, CA), and stained individually for T-bet, GATA3 or RORγt (561265, 560074, 562607, BD Biosciences, San Jose, CA). For megakaryocyte staining, total lung cells were stained with Live/Dead Fix Blue and CD41, CXCR4 (133927, 146507, Biolegend, San Diego, CA), Dkk-1 (BAM1765, R&D systems, Minneapolis, MN) and PE-streptavidin (405203, Biolegend, San Diego, CA). […]

In assay [5] the test system is C57BL/6 mice. The assay is described as follows: Recombinant mouse Dkk-1 i.p. in ece1Δ/Δ C. albicans-challenged mice. Format: in vivo. On the procedure:
To confirm, synthetic mouse Dkk-1 was administered to mice challenged with ece1Δ/Δ C. albicans (FIG. 3A). […] Dkk-1 alone had no effect on any index of allergic airway disease when administered through the intraperitoneal route (data not shown). Thus, in some aspects, Dkk-1 may be an important mediator of lung Th2 cell responses (Chae et al., 2016b), and may be equally important for the generation of Th17 cell responses in the context of airway mycosis. These findings further confirm that Dkk-1 is essential for the control of C. albicans growth in the lung.
as §1, §2

Setting [6] is: ece1Δ/Δ C. albicans-challenged mice.

Take `CCC(=O)O[C@]1(C(=O)SCF)[C@H](C)C[C@H]2[C@@H]3C[C@H](F)C4=CC(=O)C=C[C@]4(C)[C@@]3(F)[C@@H](O)C[C@@]21C` [FP, fluticasone propionate]: the airway hyperresponsiveness result in assay [1] is recorded as “exacerbate”.

thrombin: the “Dkk-1 release by platelets” value in assay [2] was “significantly increased”.

As to `NCC1CCN(c2nccc(-c3ccc4ccccc4c3)n2)CC1` [WAY 262611], the “airway hyperresponsiveness (AHR) in fungal experimental asthma due to Aspergillus niger” value in assay [3] (FIG. 16 legend, route not stated) is listed as “abrogates”. Further, in assay [3] (IP route (systemic), 14 days, P<0.05 versus IN or AN), the “AHR induced by AN” value is on record as “abrogates”. In addition, the lung fungal burdens result in assay [4] (C. albicans-challenged mice) is “markedly elevated”. Also, the BALF eosinophilia entry in assay [4] (C. albicans-challenged mice, 10 or 20 μg/kg i.p.) is on record as “most notably reducing”. The “BALF inflammatory cell recruitment” value in assay [4] (C. albicans-challenged mice, 10 or 20 μg/kg i.p., dose-dependent) was “progressively reduced”. Further, the “secretion of type 2 cytokines (IL-4, IL-5, IL-13) from whole lung” value in assay [4] (C. albicans-challenged mice, ELISA) is recorded as “suppression”. Also, the airway hyper-responsiveness result in assay [4] (C. albicans-challenged mice, inhibitor 10 or 20 μg/kg i.p., dose-dependent, 24 h after final challenge) is reported as “progressively reduced”. Besides, in assay [4] (C. albicans-challenged mice, lung, ELISA), the “secretion of IL-1β, IL-6 and TNF” value is listed as “not significantly affected”. Moreover, the “secretion of IL-17” value in assay [4] (C. albicans-challenged mice, whole lung, ELISA) is “inhibited”. In addition, the “recruitment to whole lung of GATA3+ Th2 and RORγt+ Th17 cells” value in assay [4] (flow cytometry, correlated with inhibitor dose) was “decreased recruitment”.

B1: Dkk-1: recombinant mouse Dkk-1 (5897-DK-010, R&D systems), Wnt pathway antagonist peptide (protein, UniProt O54908 32-272, looked up)
Dickkopf-related protein 1: T1 sequence (O54908 32-272)
As to B1, in assay [5] (Dkk-1 alone, intraperitoneal route, data not shown), the “any index of allergic airway disease” value was “no effect”. In addition, in assay [5] (setting [6]), the fungal lung burdens result is given as “significantly reduced”; the “recruitment of inflammatory cells, especially eosinophils, to the airways” value was “markedly enhanced”; the “recruitment to lung of GATA3+ Th2 and RORγt+ Th17 cells” value is reported as “markedly increase”; the “secretion of innate pro-inflammatory cytokines” value is reported as “did not influence”. Besides, in assay [5] (setting [6]), the “secretion of lung Th2 cytokines, especially IL-4, but also IL-17” value is on record as “markedly enhanced”. In addition, the airway hyper-responsiveness entry in assay [5] (ece1Δ/Δ C. albicans-challenged mice, 5 μg/kg i.p.) is listed as “significantly enhanced”.
